“Also recorded” adds a separate entry of the source.
What was measured:
dorsal root ganglia = assay: Neurite/axon outgrowth in dorsal root ganglia explant cultures; format: cell-based, rat; details: for time at which growth begins to plateau / time by which some outgrowth is evident: all concentrations
Experimental: Stage E16 embryos were removed from pregnant Sprague-Dawley rats and the dorsal root ganglia dissected. Whole ganglia explants were cultured in collagencoated 35 mm dishes (Falcon) using N2 medium (Dulbecco's Modified Eagle medium and Ham's F12 medium mixed 1:1 and supplemented with progesterone, selenium, insulin, putrescine, glucose, and penicillin-streptomycin) at 37° C. in a 15% CO2 environment. Sensory ganglia were treated with various concentrations of NGF and/or FK506 or rapamycin or anti-NGF antibody. Ganglia were observed every 2-3 days under phase-contrasting using an Olympus IMT-2 inverted microscope, and measurements of axon length were made. The axonal field of each ganglion was divided into four quadrants, and the length of the longest axons in each quadrant was measured in microns using an eye-piece micrometer. The average of these measurements was taken as the axon length for the ganglion.

PC-12 cells = assay: Neurite outgrowth in PC-12 cells; format: cell-based
Experimental: PC-12 cells were maintained at 37° C., 5% CO2, in Dulbecco's modified Eagle medium (DMEM) supplemented with 10% heat-inactivated horse serum and 5% heat-inactivated fetal bovine serum. For differentiation in NGF, cells were plated at 1×10^5 in 35 mm culture wells coated with rat tail collagen at 5 μg/cm^2, and allowed to attach before replacing the media with DBMEM supplemented with 2% fetal horse serum, 1% fetal calf serum, NGF and/or FK506 or rapamycin. For quantitation of neurite outgrowth, random photographs were made (3-4 per well), and process bearing neurons were counted with processes being greater than 5 μm. Experimental conditions were unknown by the photographer and cell counter. Four separate experiments were performed in duplicate for each data point presented. Neurites were identified and counted from approximately 100 cells per photograph. Thus, neurites from 1200-1600 cells were counted per data point.

FKBP [1] = target: T1, FKBP (Rattus norvegicus, UniProt Q62658); assay: [3H]FK506 binding to PC-12 cell homogenates; parameters: endogenous in cells; host or cells: PC-12 cells; details: for [3H]FK506 binding following NGF treatment: PC-12 cells, NGF 50 ng/ml
Experimental: Levels of FKBP in PC-12 cells were obtained from Scatchard analysis of [^3 H]FK506 binding curves. Cultures were scraped from the culture wells and homogenized in 10 volumes of 50 mM Tris-HCl, pH 7.4, 1 mM EDTA, 100 μg/ml phenylmethylsulfonylfluoride and centrifuged at 40,000×g for 20 min at 4° C. Protein was determined by the Coomassie blue dye binding assay using bovine serum albumin as a standard. Binding of 250 pM [^3 H]dihydro FK506 (86.5 Ci/mmol, DuPont/NEN) was assessed for samples containing 5 μg soluble protein in a final volume of 0.4 ml assay buffer containing 50 mM Tris-HCl, pH 7.4, 2 mg/ml BSA and varying concentrations of unlabeled FK506. After 60 min incubation at 25° C., 0.35 ml was layered over a 0.8 ml column of LH-20 Sephadex (Pharmacia LKB), pre-equilibrated with assay buffer. The column was further washed with 0.4 ml of assay buffer, the eluates collected, mixed with Formula 963 (DuPont/NEN) and counted in a Beckman scintillation counter. Specific binding was determined by subtracting binding obtained in the presence of 1 μM unlabeled FK506 from total [^3 H]FK506 bound.

FKBP [2] = target: T1, FKBP; assay: [3H]FK506 autoradiography on dorsal root ganglia cultures; format: binding; details: 1 μM unlabeled FK506, 1 nM [3H]FK506
Experimental: For [^3 H]FK506 autoradiography, dorsal root ganglia cultures were grown on chamber slides coated with collagen, 5 μg/cm^2. Cultures were fixed on the slide with ice cold 4.0% freshly depolymerized paraformaldehyde in 0.1 M sodium phosphate buffer, pH 7.4, for 1 hr, then washed two times with phosphate buffered saline. Fixed cultures were labeled with [^3 H]FK506 by pre-incubating the slides in a buffer consisting of 50 mM Hepes, 2 mg/ml bovine serum albumin, 0.02% Tween-20 pH 7.4. This was followed by incubation in the same assay buffer containing 1 nM [^3 H]FK506. Non-specific binding was determined by adding 1 μM unlabeled FK506. The slides were then rinsed 4×5 min prior to drying, and juxtaposed to tritium-sensitive film for 10 days.

FKBP [3] = target: T1, FKBP; assay: [3H]FK506 binding in rat tissues (Table 1A); parameters: from tissue; host or cells: rat sciatic nerve, cerebral cortex, thymus, spleen; neonatal rat forebrain and growth cones
From the text: If FKBP were physiologically associated with neuronal process extension in the actions of GAP-43, then one might anticipate substantial levels of FKBP in peripheral nerve. Accordingly, we measured [^3 H]FK-506 binding in rat sciatic nerve, as well as in growth cones isolated from 2-day-old rat pups, and compared values with those of the cerebral cortex and several peripheral tissues.
For axon transport experiments, classic ligature techniques were used following the methods of Tetzlaff et al. One week following sciatic nerve crush two collection ligatures (510 sutures) were placed on the nerve approximately 10 mm apart with the distal most ligature positioned 10 mm proximal to the initial crush sight. Six hours later, 5-3 mm segments of the nerve were collected from regions proximal to, distal to, and between the collection ligatures as illustrated in FIG. 5. The nerve segments were prepared for [^3 H]FK-506 binding assays by homogenizing in 10 volumes of 50 mM Tris-HCl, pH 7.4. Homogenates were centrifuged at 15,000×g for 20 min at 4° C., and supernatants were collected and assayed for total protein concentration using the Coomassie blue dye binding assay (Pearce). [^3 H]FK-506 binding was carried out as described (4) on aliquots containing 2 ug of total soluble protein in a final volume of 0.4 ml assay buffer consisting of 50 mM Tris-HCl, pH 7.4, 2 mg/ml bovine serum albumin, 250 pM [^3 H]FK-506, and varying concentrations of unlabeled FK-506. Following incubation at 25° C. for 60 min, 0.35 ml was layered over a 0.8 ml column of LH-20 Sephadex (Pharmacia LKB) and washed with 0.4 ml of assay buffer. The eluates were collected and counted in a scintillation counter.

T1 sequence (Q62658 whole entry): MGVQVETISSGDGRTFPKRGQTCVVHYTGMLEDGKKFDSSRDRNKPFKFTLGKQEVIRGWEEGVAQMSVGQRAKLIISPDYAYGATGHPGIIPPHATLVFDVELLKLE

Question: `C=CC[C@@H]1/C=C(\C)C[C@H](C)C[C@H](OC)[C@H]2O[C@@](O)(C(=O)C(=O)N3CCCC[C@H]3C(=O)O[C@H](/C(C)=C/[C@@H]3CC[C@@H](O)[C@H](OC)C3)[C@H](C)[C@@H](O)CC1=O)[C@H](C)C[C@@H]2OC` [FK506] was tested. Which “neurite outgrowth compared with no added growth factor” value (dorsal root ganglia; FK506 1 pM) did it give?
Answer: Its value is “greater than in its absence”.

Question: And the neurite/axon outgrowth (dorsal root ganglia; FK506 1 μM alone)?
Answer: Its neurite/axon outgrowth is “produces a similar neurotrophic effect; also recorded: abundant axon outgrowth”.

Question: What about the neurite outgrowth (dorsal root ganglia; FK506 0.1 and 10 nM) of the same compound?
Answer: Its neurite outgrowth is “Progressively greater outgrowth”.

Question: And the “concentration required for maximal outgrowth” value (dorsal root ganglia; FK506 alone)?
Answer: The value was 1 µM.

Question: And the “lowest concentration producing a noticeable increase in growth” value (dorsal root ganglia; FK506 alone)?
Answer: The value was 1 nM.

Question: What about the “lowest concentration producing detectable augmentation of outgrowth” value (dorsal root ganglia; FK506 alone) of the same compound?
Answer: Its value is 1 pM.

Question: And the “time at which growth begins to plateau” value (dorsal root ganglia)?
Answer: The value was 5 to 6 days.

Question: And the “time by which some outgrowth is evident” value (dorsal root ganglia)?
Answer: The value was ≤ 1 days.

Question: What about the “kind of effect on neuritic processes” value (PC-12 cells) of the same compound?
Answer: Its value is “primarily increases neurite length”.

Question: What about the “reduction of the NGF concentration needed to elicit maximal outgrowth” value (PC-12 cells; FK506 100 nM) of the same compound?
Answer: The value was 20-50 fold.

Question: And the “effect on NGF-stimulated neurite outgrowth” value (PC-12 cells; FK506 100 nM, 48 hr)?
Answer: Its value is “markedly augments the effect of NGF”.

Question: And the “additional neurite outgrowth at maximal NGF” value (PC-12 cells; FK506 100 nM, NGF 10-100 ng/ml)?
Answer: Its value is “fails to produce additional neurite outgrowth”.

Question: And the “neurite outgrowth in the absence of NGF” value (PC-12 cells; no NGF)?
Answer: The value was “fails to elicit neurite outgrowth; also recorded: fails to stimulate neurite outgrowth”.

Question: And the EC50 (PC-12 cells; with NGF 1 ng/ml, 48 hr, read-out: half maximal effects on neurite outgrowth)?
Answer: The EC50 was ~0.1 nM.

Question: What about the “FK506 concentration eliciting the same maximal outgrowth as 50 ng/ml NGF” value (PC-12 cells; with submaximal NGF 1 ng/ml, 48 hr) of the same compound?
Answer: Its value is 1 nM.

Question: And the IC50 (FKBP [1]; untreated PC-12 cell homogenates, 250 pM radioligand, read-out: Fifty percent inhibition of [3H]FK506 binding)?
Answer: The IC50 was 1 to 2 nM.

Question: And the “displacement of [3H]FK506 autoradiographic grains” value (FKBP [2])?
Answer: The value was “autoradiographic grains are abolished”.

Question: Which “[3H]FK506 binding Bmax” value (FKBP [3]; adult rat, cerebral cortex) does the source give for `[3H]CC([3H])C[C@@H]1/C=C(\C)C[C@H](C)C[C@H](OC)[C@H]2O[C@@](O)(C(=O)C(=O)N3CCCC[C@H]3C(=O)O[C@H](/C(C)=C/[C@@H]3CC[C@@H](O)[C@H](OC)C3)[C@H](C)[C@@H](O)CC1=O)[C@H](C)C[C@@H]2OC` (some centres unmarked) [[^3 H]FK506] here?
Answer: The value was 48.0 pmol/mg protein.

Question: And the “[3H]FK506 binding Bmax” value (FKBP [3]; adult rat, sciatic nerve)?
Answer: The value was 22.1 pmol/mg protein.

Question: And the “[3H]FK506 binding Bmax” value (FKBP [3]; adult rat, spleen)?
Answer: Its value is 8.0 pmol/mg protein.

Question: And the “[3H]FK506 binding Bmax” value (FKBP [3]; adult rat, thymus)?
Answer: The value was 9.5 pmol/mg protein.

Question: And the “[3H]FK506 binding Bmax” value (FKBP [3]; neonatal rat, forebrain)?
Answer: Its value is 25.5 pmol/mg protein.

Question: What about the “[3H]FK506 binding Bmax” value (FKBP [3]; neonatal rat, growth cones) of the same compound?
Answer: The value was 10.2 pmol/mg protein.

Question: Which “blockade of FK506 effect on outgrowth” value (dorsal root ganglia; rapamycin 1 μM with FK506 1 μM) does the source give for `CO[C@H]1C[C@@H]2CC[C@@H](C)[C@@](O)(O2)C(=O)C(=O)N2CCCC[C@H]2C(=O)O[C@H]([C@H](C)C[C@@H]2CC[C@@H](O)[C@H](OC)C2)CC(=O)[C@H](C)/C=C(\C)[C@@H](O)[C@@H](OC)C(=O)[C@H](C)C[C@H](C)/C=C/C=C/C=C/1C` [rapamycin] here?
Answer: Its value is “completely blocks the effects of FK506; also recorded: completely inhibits axon outgrowth in the presence of FK506”.

Question: And the “kind of effect on neuritic processes” value (PC-12 cells)?
Answer: The value was “augments the number of processes as well as their length”.

Question: What about the “combined effect of FK506 and rapamycin” value (PC-12 cells; FK506 plus rapamycin) of the same compound?
Answer: The value was “additive”.

Question: And the neurite outgrowth (PC-12 cells; rapamycin 1 nM)?
Answer: Its neurite outgrowth is “major neurite outgrowth”.

Question: What about the “blockade of the neurotrophic actions of FK506” value (PC-12 cells; rapamycin 1 μM) of the same compound?
Answer: The value was “fails to block the neurotrophic actions of FK506”.

Question: For nerve growth factor [NGF], which neurite/axon outgrowth (dorsal root ganglia; NGF 100 ng/ml) is on record?
Answer: The neurite/axon outgrowth was “markedly increases the number and length of ganglia processes; also recorded: abundant axon outgrowth”.

Question: What about the “time at which growth begins to plateau” value (dorsal root ganglia) of the same compound?
Answer: Its value is 5 to 6 days.

Question: And the “time by which some outgrowth is evident” value (dorsal root ganglia)?
Answer: The value was ≤ 1 days.

Question: And the “concentration for maximal augmentation of neurite outgrowth” value (PC-12 cells; NGF alone)?
Answer: Its value is 50 to 100 ng/mL.

Question: What about the “NGF concentration for half maximal outgrowth” value (PC-12 cells; in the absence of FK506) of the same compound?
Answer: Its value is 5 ng/mL.

Question: What about the “[3H]FK506 binding following NGF treatment” value (FKBP [1]) of the same compound?
Answer: Its value is “increases markedly”.

Question: And the “[3H]FK506 binding following NGF treatment” value (FKBP [1]; by 20 hr)?
Answer: Its value is “triples”.
